From PMC11008251, “Distribution of 2,2′,5,5′-Tetrachlorobiphenyl (PCB52) Metabolites in Adolescent Rats after Acute Nose-Only Inhalation Exposure” (Environmental Science & Technology, 2024)
Like-named read-outs stand apart in the source and are kept apart here.

Test: PCB52 and monohydroxylated metabolite tissue levels by GC-MS/MS after 4 h nose-only inhalation
Format: in vivo, Sprague–Dawley rats
Conditions: for concentration at 4 h: Sprague-Dawley, rat, inhaled, mean
Method: PCB52 vapor for the animal exposure was generated using a published protocol.[12] Briefly, 450 g of 3 mm diameter glass beads were added to a solution of 1.5 g of PCB52 in dichloromethane. The glass beads were then coated with PCB52 by evaporating dichloromethane in a water bath at 29 °C using a rotary evaporator (Buchi Rotavapor R-200, New Castle, DE) under reduced pressure. For the animal exposures, high-efficiency particulate air (HEPA)-filtered laboratory air was passed through the PCB52-coated glass beads at a flow rate of 12 L/min to expose animals to PCB52 vapor in a nose-only exposure apparatus (Figure 1A). The flask of PCB52-coated beads and mixing chamber were kept at 25.0 °C using a precision water bath to facilitate the volatilization of PCB52. The PCB52-laden air was passed through a mixing chamber and distributed to the nose-only inhalation apparatus at a flow rate of 4 L/min per tower (n = 3) and a sampling cartridge filled with 10 g of Amberlite XAD-2 polymeric absorbent resin (Sigma-Aldrich, St. Louis, MO) at a flow rate of 2 L/min. The specified flow rates were generated using flow meter-regulated pumps. The XAD-2 cartridge was used to capture PCB52 vapor to characterize the exposure atmosphere. A sham exposure group was exposed in parallel to HEPA-filtered clean air in an identical nose-only exposure system in an adjacent lab with no supplied PCB52.
The Institutional Animal Care and Use Committee of the University of Iowa approved all of the animal protocols. Animals were housed in a temperature- and humidity-controlled room (21 °C, 55% relative humidity) with a 12 h light/dark cycle in an Association for the Assessment and Accreditation of Laboratory Animal Care (AAALAC) accredited animal facility. Animals were provided with food (sterile Teklad 5% stock diet, Harlan, Madison, WI) and water ad libitum throughout the study. Thirty-six male and female Sprague–Dawley rats (7 weeks of age; Charles River, Wilmington, MA) were allowed to acclimate to the animal facility for 8 days after arrival. Prior to exposure, rats (227 ± 27 and 197 ± 13 g, male and female, respectively) were randomly assigned to the exposure groups (n = 6 per group) using a random number generated (Excel, version 2307). Animals were simultaneously exposed for 4 h to a low or high concentration of PCB52-laden per sex) or filtered lab air (Figure 1A). Exposure duration was limited to 4 h along with scheduled training days (30 min at 55 days of age and 2 h at 56 days of age) to acclimate animals and minimize stress. […] Animal exposure occurred for 4 h at 57 days of age. Rats are considered adolescents at this age.[38] Serum was collected immediately after the animals were removed from the nose-only apparatus by cardiac puncture under isoflurane anesthesia. Rats were perfused with saline, and organs were excised and stored at −80 °C. Body and organ weights, including brain, lungs, and thymus, were not altered by PCB52 inhalation regardless of sex or exposure (Tables S2 and S3).
PCB52 and its hydroxylated metabolites were extracted from tissues, serum, and cecum and intestinal content using a published protocol;[40],[41] see the Supporting Information. Briefly, PCB52 and its metabolites were extracted from homogenates by liquid–liquid extraction and cleaned by solid-phase extraction with acidified silica gel. PCB52 and metabolites were quantified in the multiple reaction monitoring setting (MRM) on an Agilent 7890 A GC system equipped with an Agilent 7000 Triple Quad and Agilent 7693 autosampler (Agilent Technologies, Santa Clara, CA); see the Supporting Information.
PCB52 and metabolite levels, adjusted for tissue wet weight, are reported as the mean ± standard deviation. Differences in PCB52 and metabolite levels from the GC-MS/MS analysis were analyzed with the Tobit regression model because some measurements are below the detection limit. […]

**Q.** With Clc1ccc(Cl)c(-c2cc(Cl)ccc2Cl)c1 [PCB52, 2,2′,5,5′-tetrachlorobiphenyl] as the compound, how does the concentration at 4 h (female, adipose, female, high dose, read-out: PCB or metabolite detected level, Adipose) read?
**A.** 6 ng/g

**Q.** What about the concentration at 4 h (female, adipose, female, low dose, read-out: PCB or metabolite detected level, Adipose) of the same compound?
**A.** 6 ng/g

**Q.** What about the concentration at 4 h (female, brain, female, high dose, read-out: PCB or metabolite detected level, Brain) of the same compound?
**A.** 2 ng/g

**Q.** And the concentration at 4 h (female, brain, female, low dose, read-out: PCB or metabolite detected level, Brain)?
**A.** 2 ng/g

**Q.** What about the concentration at 4 h (female, cecum, female, high dose, read-out: PCB or metabolite detected level, Cecum) of the same compound?
**A.** 1 ng/g

**Q.** What about the concentration at 4 h (female, cecum, female, low dose, read-out: PCB or metabolite detected level, Cecum) of the same compound?
**A.** 1 ng/g

**Q.** And the concentration at 4 h (female, intestinal content, female, high dose, read-out: PCB or metabolite detected level, Intestinal content)?
**A.** 2 ng/g

**Q.** And the concentration at 4 h (female, intestinal content, female, low dose, read-out: PCB or metabolite detected level, Intestinal content)?
**A.** 5 ng/g

**Q.** What about the concentration at 4 h (female, liver, female, high dose, read-out: PCB or metabolite detected level, Liver) of the same compound?
**A.** 7 ng/g

**Q.** And the concentration at 4 h (female, liver, female, low dose, read-out: PCB or metabolite detected level, Liver)?
**A.** 7 ng/g

**Q.** What about the concentration at 4 h (female, lung, female, high dose, read-out: PCB or metabolite detected level, Lung) of the same compound?
**A.** 45 ng/g

**Q.** What about the concentration at 4 h (female, lung, female, low dose, read-out: PCB or metabolite detected level, Lung) of the same compound?
**A.** 41 ng/g

**Q.** And the concentration at 4 h (female, serum, female, high dose, read-out: PCB or metabolite detected level, Serum)?
**A.** 1 ng/g

**Q.** What about the concentration at 4 h (female, serum, female, low dose, read-out: PCB or metabolite detected level, Serum) of the same compound?
**A.** 1 ng/g

**Q.** What about the “general trend of decreasing tissue concentration” value (irrespective of sex or dose, GC-MS/MS) of the same compound?
**A.** lung > liver > adipose > brain ≈ intestinal content ≈ cecum ≈ serum

**Q.** And the concentration at 4 h (male, adipose, male, high dose, read-out: PCB or metabolite detected level, Adipose)?
**A.** 8 ng/g

**Q.** What about the concentration at 4 h (male, adipose, male, low dose, read-out: PCB or metabolite detected level, Adipose) of the same compound?
**A.** 6 ng/g

**Q.** What about the concentration at 4 h (male, brain, male, high dose, read-out: PCB or metabolite detected level, Brain) of the same compound?
**A.** 2 ng/g

**Q.** And the concentration at 4 h (male, brain, male, low dose, read-out: PCB or metabolite detected level, Brain)?
**A.** 1 ng/g

**Q.** What about the concentration at 4 h (male, cecum, male, high dose, read-out: PCB or metabolite detected level, Cecum) of the same compound?
**A.** 2 ng/g

**Q.** What about the concentration at 4 h (male, cecum, male, low dose, read-out: PCB or metabolite detected level, Cecum) of the same compound?
**A.** 1 ng/g

**Q.** What about the concentration at 4 h (male, intestinal content, male, high dose, read-out: PCB or metabolite detected level, Intestinal content) of the same compound?
**A.** 1 ng/g

**Q.** What about the concentration at 4 h (male, intestinal content, male, low dose, read-out: PCB or metabolite detected level, Intestinal content) of the same compound?
**A.** 1 ng/g

**Q.** What about the concentration at 4 h (male, liver, male, high dose, read-out: PCB or metabolite detected level, Liver) of the same compound?
**A.** 10 ng/g

**Q.** What about the concentration at 4 h (male, liver, male, low dose, read-out: PCB or metabolite detected level, Liver) of the same compound?
**A.** 9 ng/g

**Q.** And the concentration at 4 h (male, lung, male, high dose, read-out: PCB or metabolite detected level, Lung)?
**A.** 46 ng/g

**Q.** And the concentration at 4 h (male, lung, male, low dose, read-out: PCB or metabolite detected level, Lung)?
**A.** 50 ng/g

**Q.** And the concentration at 4 h (male, serum, male, high dose, read-out: PCB or metabolite detected level, Serum)?
**A.** 2 ng/g

**Q.** What about the concentration at 4 h (male, serum, male, low dose, read-out: PCB or metabolite detected level, Serum) of the same compound?
**A.** 2 ng/g
